Measurements reported in US20250326749A1, “COMPOUNDS, COMPOSITIONS, AND METHODS OF USING THEREOF” (Sionna Therapeutics Inc., priority 2022, published 2025).

These molecules were tested against T1, ΔF508-CFTR (Homo sapiens, UniProt P13569, DEL508-508) (assay: ΔF508-CFTR-HRP trafficking assay (cell surface expression of ΔF508-CFTR)). Details: CFSMEo- cells transiently transfected with ΔF508-CFTR-HRP; test agent 3 μM, 48 h; HRP chemiluminescence.
T1 construct: expressed in transfected cells; host or cells: CFSMEo- (human CF submucosal gland epithelial cells, ΔF508/Q2X), transiently transfected by nucleofection
Type: cell-based
In short: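 Surface-expressed ΔF508-CFTR measured via extracellular HRP tag: cell-impermeable chemiluminescent substrate, 5 min, signal normalized to 0.3% DMSO vehicle.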

T1 sequence (P13569 with tags, fused parts or gaps DEL508-508): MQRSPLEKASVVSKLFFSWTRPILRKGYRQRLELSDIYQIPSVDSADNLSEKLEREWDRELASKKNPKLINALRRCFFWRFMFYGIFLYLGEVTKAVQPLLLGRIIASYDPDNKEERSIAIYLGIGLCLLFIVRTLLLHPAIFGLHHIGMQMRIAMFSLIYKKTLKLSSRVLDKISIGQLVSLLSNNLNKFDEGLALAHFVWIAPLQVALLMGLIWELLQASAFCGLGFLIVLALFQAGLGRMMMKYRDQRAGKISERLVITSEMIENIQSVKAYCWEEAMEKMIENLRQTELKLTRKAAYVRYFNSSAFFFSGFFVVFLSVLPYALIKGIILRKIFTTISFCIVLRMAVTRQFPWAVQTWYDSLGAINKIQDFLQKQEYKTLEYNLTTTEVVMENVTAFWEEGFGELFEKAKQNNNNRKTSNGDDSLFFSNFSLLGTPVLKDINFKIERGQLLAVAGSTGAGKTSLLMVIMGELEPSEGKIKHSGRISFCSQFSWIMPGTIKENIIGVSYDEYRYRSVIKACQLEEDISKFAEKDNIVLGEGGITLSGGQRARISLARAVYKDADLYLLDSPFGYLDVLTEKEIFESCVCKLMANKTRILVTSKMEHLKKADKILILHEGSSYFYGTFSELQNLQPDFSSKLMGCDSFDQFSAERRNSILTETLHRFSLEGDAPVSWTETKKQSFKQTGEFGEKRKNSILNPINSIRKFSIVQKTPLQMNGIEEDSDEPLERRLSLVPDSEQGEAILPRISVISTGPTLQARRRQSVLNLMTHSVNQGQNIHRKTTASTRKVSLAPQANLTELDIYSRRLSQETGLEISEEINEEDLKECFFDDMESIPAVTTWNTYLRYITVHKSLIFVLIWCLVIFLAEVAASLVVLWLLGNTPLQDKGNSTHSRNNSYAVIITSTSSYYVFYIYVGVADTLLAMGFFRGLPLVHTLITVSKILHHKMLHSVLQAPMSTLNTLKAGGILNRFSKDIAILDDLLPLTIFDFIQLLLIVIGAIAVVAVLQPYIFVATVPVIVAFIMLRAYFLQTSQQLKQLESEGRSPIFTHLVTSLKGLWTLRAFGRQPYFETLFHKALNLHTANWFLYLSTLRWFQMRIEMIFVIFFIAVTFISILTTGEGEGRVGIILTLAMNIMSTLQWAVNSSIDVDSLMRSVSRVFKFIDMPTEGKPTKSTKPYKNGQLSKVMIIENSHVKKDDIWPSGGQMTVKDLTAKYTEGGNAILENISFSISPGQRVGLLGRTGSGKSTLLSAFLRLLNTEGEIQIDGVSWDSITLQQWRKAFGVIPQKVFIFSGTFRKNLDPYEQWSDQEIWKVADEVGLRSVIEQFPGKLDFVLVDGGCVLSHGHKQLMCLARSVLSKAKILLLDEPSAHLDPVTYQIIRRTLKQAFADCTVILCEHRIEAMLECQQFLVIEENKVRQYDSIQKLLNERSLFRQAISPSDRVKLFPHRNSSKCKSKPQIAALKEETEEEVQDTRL

Row | SMILES | RLUs: ΔF508-CFTR-HRP trafficking data normalized to the vehicle treated control (0.3% DMSO)
1 | C[C@H](Oc1cc(-n2nc(C(F)(F)F)c3c2[C@@H](Oc2ccc(C(=O)O)cc2)CCC3)ccn1)c1cc2c(cc1F)OC(F)(F)O2 (single isomer, unassigned) [Example 36a] | A (RLU 5.0 μM-10 μM)
2 | C[C@H](Oc1ccnc(-n2nc(C(F)(F)F)c3c2[C@@H](Oc2ccc(C(=O)O)cc2)CCC3)c1)c1ccc2c(c1)OC(F)(F)O2 (single isomer, unassigned) [Example 36b] | A (RLU 5.0 μM-10 μM)
3 | C[C@H](Oc1cccc(-n2nc(C(F)(F)F)c3c2[C@@H](Oc2ccc(C(=O)O)cc2)CCC3)n1)c1ccc2c(c1)OC(F)(F)O2 (single isomer, unassigned) [Example 36c] | B (RLU 3.5 μM-5.0 μM)
4 | C[C@H](Oc1cc(-n2nc(C(F)(F)F)c3c2[C@@H](Oc2ccc(C(=O)O)cc2)CCC3)cnc1F)c1cc2c(cc1F)OC(F)(F)O2 (single isomer, unassigned) [Example 36d] | B (RLU 3.5 μM-5.0 μM)
5 | C[C@H](Oc1cncc(-n2nc(C(F)(F)F)c3c2[C@@H](Oc2ccc(C(=O)O)cc2)CCC3)c1)c1cc2c(cc1F)OC(F)(F)O2 (single isomer, unassigned) [Example 36e] | A (RLU 5.0 μM-10 μM)
6 | C[C@H](Oc1nc(-n2nc(C(F)(F)F)c3c2[C@@H](Oc2ccc(C(=O)O)cc2)CCC3)ccc1F)c1ccc2c(c1)OC(F)(F)O2 (single isomer, unassigned) [Example 36f] | A (RLU 5.0 μM-10 μM)
7 | C[C@H](Oc1cccc(-n2nc(C(F)(F)F)c3c2[C@@H](Oc2ccc(C(=O)O)cc2)CCC3)c1)c1cc2c(cc1F)OC(F)(F)O2 (single isomer, unassigned) [Example 36g] | B (RLU 3.5 μM-5.0 μM)
8 | C[C@H](Oc1cnnc(-n2nc(C(F)(F)F)c3c2[C@@H](Oc2ccc(C(=O)O)cc2)CCC3)c1)c1ccc2c(c1)OC(F)(F)O2 (single isomer, unassigned) [Example 36h] | B (RLU 3.5 μM-5.0 μM)
9 | C[C@H](Oc1cc(-n2nc(C(F)(F)F)c3c2[C@@H](Oc2ccc(C(=O)O)cc2)CCC3)ncc1F)c1ccc2c(c1)OC(F)(F)O2 (single isomer, unassigned) [Example 36i] | A (RLU 5.0 μM-10 μM)
10 | C[C@H](Oc1cc(-n2nc(C(F)(F)F)c3c2[C@@H](Oc2ccc(C(=O)O)cc2)CCC3)ccc1F)c1cc2c(cc1F)OC(F)(F)O2 (single isomer, unassigned) [Example 36j] | C (RLU 0.0 μM-3.5 μM)
11 | CC[C@H](Oc1cc(-n2nc(C(F)(F)F)c3c2[C@@H](Oc2ccc(C(=O)O)cc2)CCC3)ccn1)c1ccc2c(c1)OC(F)(F)O2 (single isomer, unassigned) [Example 36k] | C (RLU 0.0 μM-3.5 μM)
12 | C[C@H](Oc1cccc(-n2nc(C(F)(F)F)c3c2[C@@H](Oc2ccc(C(=O)O)cc2)CCC3)n1)c1cc2c(cc1F)OC(F)(F)O2 (single isomer, unassigned) [Example 36l] | A (RLU 5.0 μM-10 μM)
13 | C[C@H](Oc1nc(-n2nc(C(F)(F)F)c3c2[C@@H](Oc2ccc(C(=O)O)cc2)CCC3)ccc1F)c1cc2c(cc1F)OC(F)(F)O2 (single isomer, unassigned) [Example 36m] | A (RLU 5.0 μM-10 μM)
14 | C[C@H](Oc1cccc(-n2nc(C(F)(F)F)c3c2C(OC24CC(C(=O)O)(C2)C4)CCC3)c1)c1ccc2c(c1)OC(F)(F)O2 (single isomer, unassigned) [Example 42] | A (RLU 5.0 μM-10 μM)
15 | C[C@@H](Oc1cc(-n2nc(C(F)(F)F)c3c2C(O[C@H]2CC[C@H](C(=O)O)CC2)CCC3)ccn1)c1ccc2c(c1)OC(F)(F)O2 (single isomer, unassigned) [Example 43] | A (RLU 5.0 μM-10 μM)
16 | C[C@H](Oc1cc(-n2nc(C(F)(F)F)c3c2C(O[C@H]2CC[C@H](C(=O)O)CC2)CCC3)ccn1)c1ccc2c(c1)OC(F)(F)O2 (single isomer, unassigned) [Example 44] | A (RLU 5.0 μM-10 μM)
17 | C[C@@H](Oc1cc(-n2nc(C(F)(F)F)c3c2C(O[C@H]2CC[C@H](C(=O)O)CC2)CCC3)ccn1)c1cc2c(cn1)OC(F)(F)O2 (single isomer, unassigned) [Example 47] | B (RLU 3.5 μM-5.0 μM)

Row | SMILES | RLUs: ΔF508-CFTR-HRP trafficking data normalized to the vehicle treated control (0.3% DMSO)
18 | C[C@H](Oc1cc(-n2nc(C(F)(F)F)c3c2C(O[C@H]2CC[C@H](C(=O)O)CC2)CCC3)ccn1)c1cc2c(cn1)OC(F)(F)O2 (single isomer, unassigned) [Example 48] | C (RLU 0.0 μM-3.5 μM)
19 | C[C@H](Oc1cc(-n2nc(C(F)(F)F)c3c2[C@@H](O[C@H]2CC[C@H](C(=O)O)CC2)CCC3)cnn1)c1ccc2c(c1)OC(F)(F)O2 (single isomer, unassigned) [Example 55] | C (RLU 0.0 μM-3.5 μM)
20 | C[C@H](Oc1cc(-n2nc(C(F)(F)F)c3c2[C@H](O[C@H]2CC[C@H](C(=O)O)CC2)CCC3)cnn1)c1ccc2c(c1)OC(F)(F)O2 (single isomer, unassigned) [Example 56] | B (RLU 3.5 μM-5.0 μM)
21 | C[C@H](Oc1cncc(-n2nc(C(F)(F)F)c3c2[C@@H](OC24CCC(C(=O)O)(CC2)CC4)CCC3)c1)c1ccc2c(c1)OC(F)(F)O2 (single isomer, unassigned) [Example 57] | B (RLU 3.5 μM-5.0 μM)
22 | C[C@H](Oc1cncc(-n2nc(C(F)(F)F)c3c2[C@H](OC24CCC(C(=O)O)(CC2)CC4)CCC3)c1)c1ccc2c(c1)OC(F)(F)O2 (single isomer, unassigned) [Example 58] | B (RLU 3.5 μM-5.0 μM)
23 | C[C@H](Oc1cc(-n2nc(C(F)(F)F)c3c2[C@@H](OC24CCC(C(=O)O)(CC2)CC4)CCC3)cnc1F)c1ccc2c(c1)OC(F)(F)O2 (single isomer, unassigned) [Example 59] | C (RLU 0.0 μM-3.5 μM)
24 | C[C@H](Oc1cc(-n2nc(C(F)(F)F)c3c2[C@H](OC24CCC(C(=O)O)(CC2)CC4)CCC3)cnc1F)c1ccc2c(c1)OC(F)(F)O2 (single isomer, unassigned) [Example 60] | C (RLU 0.0 μM-3.5 μM)
25 | C[C@H](Oc1cc(-n2nc(C(F)(F)F)c3c2[C@@H](Oc2ccc(C(=O)O)cc2)CCC3)cnn1)c1ccc2c(c1)OC(F)(F)O2 (single isomer, unassigned) [Example 61] | C (RLU 0.0 μM-3.5 μM)
26 | C[C@H](Oc1cc(-n2nc(C(F)(F)F)c3c2[C@@H](OC24CC(C(=O)O)(C2)C4)CCC3)cnn1)c1ccc2c(c1)OC(F)(F)O2 (single isomer, unassigned) [Example 62] | C (RLU 0.0 μM-3.5 μM)
27 | C[C@H](Oc1cc(-n2nc(C(F)(F)F)c3c2[C@H](OC24CC(C(=O)O)(C2)C4)CCC3)cnn1)c1ccc2c(c1)OC(F)(F)O2 (single isomer, unassigned) [Example 63] | B (RLU 3.5 μM-5.0 μM)
28 | C[C@H](Oc1cc(-n2nc(C(F)(F)F)c3c2[C@@H](OC24CCC(C(=O)O)(CC2)CC4)CCC3)ccn1)c1ccc2c(c1)OC(F)(F)O2 (single isomer, unassigned) [Example 64] | A (RLU 5.0 μM-10 μM)
29 | C[C@H](Oc1cc(-n2nc(C(F)(F)F)c3c2[C@H](OC24CCC(C(=O)O)(CC2)CC4)CCC3)ccn1)c1ccc2c(c1)OC(F)(F)O2 (single isomer, unassigned) [Example 65] | C (RLU 0.0 μM-3.5 μM)
30 | C[C@H](Oc1cncc(-n2nc(C(F)(F)F)c3c2[C@@H](O[C@H]2CC[C@H](C(=O)O)CC2)CCC3)c1)c1ccc2c(c1)OC(F)(F)O2 (single isomer, unassigned) [Example 66] | A (RLU 5.0 μM-10 μM)
31 | C[C@H](Oc1cncc(-n2nc(C(F)(F)F)c3c2[C@H](O[C@H]2CC[C@H](C(=O)O)CC2)CCC3)c1)c1ccc2c(c1)OC(F)(F)O2 (single isomer, unassigned) [Example 67] | A (RLU 5.0 μM-10 μM)
32 | C[C@H](Oc1cc(-n2nc(C(F)(F)F)c3c2[C@@H](Oc2ccc(C(=O)O)cc2)CCC3)cnc1F)c1ccc2c(c1)OC(F)(F)O2 (single isomer, unassigned) [Example 68] | C (RLU 0.0 μM-3.5 μM)
33 | C[C@H](Nc1cc(-n2nc(C(F)(F)F)c3c2[C@@H](Oc2ccc(C(=O)O)cc2)CCC3)ccn1)c1ccc2c(c1)OC(F)(F)O2 (single isomer, unassigned) [Example 87] | A (RLU 5.0 μM-10 μM)
34 | CC[C@H](Nc1cc(-n2nc(C(F)(F)F)c3c2[C@@H](Oc2ccc(C(=O)O)cc2)CCC3)ccn1)c1ccc2c(c1)OC(F)(F)O2 (single isomer, unassigned) [Example 88] | C (RLU 0.0 μM-3.5 μM)
